Data reported in patent US12427129B2, “Application of compound amino acids in preparation of medicament for improving sensitivity of bacteria to antibiotics” (SUN YAT-SEN UNIVERSITY, priority 2020, dated 2025).
Converted amounts (≈) assume the structure as drawn. Read-outs that look alike come from different tables or passages of the source.

What was measured:
[1] = tested on: Escherichia coli cefazolin-resistant bacteria; assay: survival rate with single amino acids or amino acid combination in synergy with cefazolin; format: cell-based
Procedure: Each amino acid in 2 mM compound amino acids was added alone with a corresponding concentration, and through survival rate of bacteria, it was studied improvement on sensitivity of bacteria to antibiotics when each amino acid was in synergy with cefazolin.

[2] = tested on: ampicillin-resistant bacteria (K12-RAMP); assay: survival rate of bacteria, compound amino acids in synergy with ampicillin; format: cell-based, Escherichia coli; settings: ampicillin 2000 μg/mL; second of 8 values, taken as ampicillin without compound amino acids
Procedure: Taking Escherichia coli sensitive bacteria K12 and artificially passaged ampicillin-resistant bacteria (K12-RAMP) as research objects, for the former, concentration of ampicillin was 40 μg/mL, and for the latter, concentration of ampicillin was 2000 μg/mL. It was investigated effects of 0.125, 0.5, 2.0, 8.0, 32, and 64 mM compound amino acids in synergy with antibiotics of the above concentrations on survival rates of sensitive bacteria and corresponding resistant bacteria.

[3] = tested on: Escherichia coli sensitive bacteria K12; assay: survival rate of bacteria by plate count, compound amino acids in synergy with antibiotics; format: cell-based; settings: for survival rate of bacteria: first of 7 values, taken as no compound amino acids
[4] = tested on: balofloxacin-resistant bacteria (K12-RBLFX); assay: survival rate of bacteria, compound amino acids in synergy with balofloxacin; format: cell-based, Escherichia coli; settings: balofloxacin 25 μg/mL; second of 8 values, taken as balofloxacin without compound amino acids
Procedure: Taking Escherichia coli sensitive bacteria K12 and balofloxacin-resistant artificially passaged resistant bacteria (K12-RBLFX) as research objects, for the former, concentration of balofloxacin was 0.2 μg/mL, and for the latter, concentration of balofloxacin was 25 μg/mL. It was investigated effects of compound amino acids of different concentrations in synergy with antibiotics of the above concentrations on survival rates of sensitive bacteria and corresponding resistant bacteria.

[5] = tested on: Escherichia coli strains clinically obtained; assay: MIC against cefazolin (NCCLS method); format: cell-based
From the text: (§1) Escherichia coli (E. coli) is one of the most common bacteria in clinical practice. 35 Escherichia coli strains clinically obtained were named as Y1 to Y12, Y15 to Y24, Y27, Y28, and Y30 to Y40. The minimum inhibitory concentration (MIC) of these 35 Escherichia coli strains clinically obtained against cefazolin antibiotics was detected according to the NCCLS method, at the same time, Escherichia coli sensitive bacteria K12 and cefazolin-resistant bacteria K12-RCZO were used as controls to determine the MIC.

Bacillus subtilis = assay: survival rate, compound amino acids in synergy with cefazolin; format: cell-based; settings: cefazolin 80 μg/mL without compound amino acids, 6 h
Procedure: (§2) Other Gram-negative bacteria such as Vibrio alginolyticus, Vibrio parahaemolyticus, and Pseudomonas aeruginosa, and Gram-positive bacteria Bacillus subtilis were selected as research objects to investigate bactericidal effect of compound amino acids in synergy with cefazolin; among them, concentration of compound amino acids was 2 mM, concentration of cefazolin was 80 μg/mL, and incubation time was 6 h, a relative survival rate of bacteria was calculated.

Pseudomonas aeruginosa = assay: as above; format: cell-based; settings: cefazolin 80 μg/mL without compound amino acids, 6 h
Procedure: as §2

Vibrio parahaemolyticus = assay: as above; format: cell-based; settings: cefazolin 80 μg/mL without compound amino acids, 6 h
Procedure: as §2

Vibrio alginolyticus = assay: as above; format: cell-based; settings: cefazolin 80 μg/mL without compound amino acids, 6 h
Procedure: as §2

[6] = tested on: Escherichia coli cefazolin-resistant bacteria (K12-RCZO); assay: MIC against cefazolin; format: cell-based
From the text: as §1

[7] = tested on: Escherichia coli sensitive bacteria K12; assay: MIC against cefazolin; format: cell-based
From the text: as §1

[8] = tested on: resistant bacteria K12-RCZO; format: cell-based, Escherichia coli
Procedure: Preparation of bacterial samples: monoclonal bacteria of sensitive bacteria K12 or resistant bacteria K12-RCZO were picked and inoculated in 50 mL LB liquid medium respectively. After incubation for 17 h at 37° C. and 200 rpm, bacterial cells were collected by centrifugation at 8000 rpm for 4 min; the bacterial cells were washed twice with 0.85% normal saline, suspended in 1×M9 medium, adjusted to OD600 as 0.6, and then dispensed 5 mL into test tubes for subsequent experimental research.
Each of prepared bacterial samples was divided into 4 groups: control group, group of 2 mM 5% compound amino acids added only, and group of cefazolin antibiotics added only (a concentration being 80 μg/mL for sensitive bacteria K12, and a concentration being 2 mg/mL for resistant bacteria K12-RCZO), and group of cefazolin and 2 mM compound amino acids added. Bacteria were incubated at 37° C. and 200 rpm for 6 h, and then 100 μL was taken for doubling dilution, and 10 μL of bacterial solution was taken therefrom for plate count to calculate a survival rate of bacteria; results are shown in FIG. 3.
In order to explore the relationship between compound amino acids improving sensitivity of resistant bacteria to antibiotics and antibiotic concentration, 8 cefazolin concentration gradients (0, 62.5, 125, 250, 500, 1,000, 2,000 and 4,000 μg/mL) were set up; then, 2 mM compound amino acids were added or not added, respectively, after 6 h, plate count method was used to count viable bacteria; under the same antibiotics concentration, survival rates of bacteria when compound amino acids not added (control) and after compound amino acids added were compared.

C[C@H](N)C(=O)O [alanine]
survival rate ([1]; amino acid alone at 404 μM in synergy with cefazolin): 73.6%

CC1(C)S[C@@H]2[C@H](NC(=O)[C@H](N)c3ccccc3)C(=O)N2[C@H]1C(=O)O [ampicillin]
survival rate [2]: 87.2%
survival rate ([3]; ampicillin 40 μg/mL, second of 8 values, taken as ampicillin without compound amino acids): 86.7%

N=C(N)NCCC[C@H](N)C(=O)O [arginine]
survival rate ([1]; amino acid alone at 140 μM in synergy with cefazolin): 97.3%

N[C@@H](CC(=O)O)C(=O)O [aspartate]
survival rate ([1]; amino acid alone at 56 μM in synergy with cefazolin): 94.5%

CNC1CCCN(c2c(F)cc3c(=O)c(C(=O)O)cn(C4CC4)c3c2OC)C1 (centres unmarked) [balofloxacin]
survival rate [4]: 90.2%

Cc1nnc(SCC2=C(C(=O)O)N3C(=O)[C@@H](NC(=O)Cn4cnnn4)[C@H]3SC2)s1 [cefazolin]
MIC ([5]; 37% of the remaining clinical Escherichia coli resistant bacteria): > 640 µg/mL
MIC ([5]; clinical strain Y1): 40 µg/mL (≈ 88 µM)
MIC ([5]; clinical strain Y3): 2.5 µg/mL (≈ 5.5 µM)
MIC ([5]; clinical strain Y5): 10 µg/mL (≈ 22 µM)
MIC ([5]; clinical strain Y6): 40 µg/mL (≈ 88 µM)
MIC ([5]; clinical strain Y7): 2.5 µg/mL (≈ 5.5 µM)
MIC ([5]; clinical strain Y8): 5 µg/mL (≈ 11 µM)
MIC ([5]; clinical strain Y11): 10 µg/mL (≈ 22 µM)
MIC ([5]; clinical strain Y12): 40 µg/mL (≈ 88 µM)
MIC ([5]; clinical strain Y15): 5 µg/mL (≈ 11 µM)
MIC ([5]; clinical strain Y16): 5 µg/mL (≈ 11 µM)
MIC ([5]; clinical strain Y17): 10 µg/mL (≈ 22 µM)
MIC ([5]; clinical strain Y18): 20 µg/mL (≈ 44 µM)
MIC ([5]; clinical strain Y19): 5 µg/mL (≈ 11 µM)
MIC ([5]; clinical strain Y20): 20 µg/mL (≈ 44 µM)
MIC ([5]; clinical strain Y21): 20 µg/mL (≈ 44 µM)
MIC ([5]; clinical strain Y22): 5 µg/mL (≈ 11 µM)
MIC ([5]; clinical strain Y23): 2.5 µg/mL (≈ 5.5 µM)
MIC ([5]; clinical strain Y24): 20 µg/mL (≈ 44 µM)
MIC ([5]; clinical strain Y28): 5120 µg/mL (≈ 11300 µM)
MIC ([5]; clinical strain Y32): 5120 µg/mL (≈ 11300 µM)
MIC ([5]; clinical strain Y36): 5120 µg/mL (≈ 11300 µM)
MIC ([5]; clinical strain Y40): 20 µg/mL (≈ 44 µM)
survival rate (Bacillus subtilis): 58.0%
survival rate (Pseudomonas aeruginosa): 85.9%
survival rate (Vibrio parahaemolyticus): 79.3%
survival rate (Vibrio alginolyticus): 62.1%
survival rate of bacteria ([1]; M9 control group with antibiotics added (1 mg/mL cefazolin), 6 h): 45.9%
survival rate of bacteria ([1]; only cefazolin is added): 85.04%
survival rate ([3]; cefazolin 80 μg/mL, compound amino acids 0 mM, 6 h): 89.6%
MIC ([6]; Escherichia coli, read-out: MIC against cefazolin): 80 µg/mL (≈ 176 µM)
MIC relative to that of the starting strain ([6]; K12-RCZO vs K12): 64 times
MIC [7]: 1.25 µg/mL (≈ 2.75 µM)
survival rate of bacteria ([8]; as printed in b79: K12-RCZO, compound amino acids 0 mM, 1000 μg/mL cefazolin (results of FIG. 4)): 89.6%
survival rate of bacteria ([8]; cefazolin 62.5 μg/mL, compound amino acids not added, 6 h): 87.5%
survival rate of bacteria ([8]; cefazolin 125 μg/mL, compound amino acids not added, 6 h): 96.9%
survival rate of bacteria ([8]; cefazolin 250 μg/mL, compound amino acids not added, 6 h): 83.3%
survival rate of bacteria ([8]; cefazolin 500 μg/mL, compound amino acids not added, 6 h): 78.6%
survival rate ([8]; cefazolin 1,000 μg/mL, compound amino acids 0 mM, 6 h): 92.6%
survival rate of bacteria ([8]; cefazolin 1,000 μg/mL, compound amino acids not added, 6 h): 83.3%
survival rate of bacteria ([8]; cefazolin 2,000 μg/mL, compound amino acids not added, 6 h): 84.4%
survival rate of bacteria ([8]; cefazolin 4,000 μg/mL, compound amino acids not added, 6 h): 69.8%

CO/N=C(\C(=O)N[C@@H]1C(=O)N2C(C(=O)O)=C(CSC(=O)c3ccco3)CS[C@H]12)c1csc(N)n1 [ceftiofur]
survival rate of bacteria ([3]; ceftiofur 200 μg/mL, 6 h): 61.9%

CO/N=C(\C(=O)N[C@@H]1C(=O)N2C(C(=O)O)=C(CSc3nc(=O)c(=O)[nH]n3C)CS[C@H]12)c1csc(N)n1 [ceftriaxone]
survival rate of bacteria ([3]; ceftriaxone 10 μg/mL, 6 h): 73.1%

N[C@@H](CSSC[C@H](N)C(=O)O)C(=O)O [cystine]
survival rate ([1]; amino acid alone at 4 μM in synergy with cefazolin): 94.1%

N[C@@H](CCC(=O)O)C(=O)O [glutamic acid]
survival rate ([1]; amino acid alone at 85 μM in synergy with cefazolin): 94.5%

NCC(=O)O [glycine]
survival rate ([1]; amino acid alone at 233 μM in synergy with cefazolin): 71.4%

N[C@@H](Cc1c[nH]cn1)C(=O)O [histidine]
survival rate ([1]; amino acid alone at 96 μM in synergy with cefazolin): 97.6%

CC[C@H](C)[C@H](N)C(=O)O [isoleucine]
survival rate ([1]; amino acid alone at 95 μM in synergy with cefazolin): 69.6%

CC(C)C[C@H](N)C(=O)O [leucine]
survival rate ([1]; amino acid alone at 129 μM in synergy with cefazolin): 75.7%

CC(=O)O.NCCCC[C@H](N)C(=O)O [lysine acetate]
survival rate ([1]; amino acid alone at 133 μM in synergy with cefazolin): 68.6%

CSCC[C@H](N)C(=O)O [methionine]
survival rate ([1]; amino acid alone at 83 μM in synergy with cefazolin): 91.5%

N[C@@H](Cc1ccccc1)C(=O)O [phenylalanine]
survival rate ([1]; amino acid alone at 106 μM in synergy with cefazolin): 98.8%

O=C(O)[C@@H]1CCCN1 [proline]
survival rate ([1]; amino acid alone at 126 μM in synergy with cefazolin): 85.4%

N[C@@H](CO)C(=O)O [serine]
survival rate ([1]; amino acid alone at 47 μM in synergy with cefazolin): 67.9%

C[C@@H](O)[C@H](N)C(=O)O [threonine]
survival rate ([1]; amino acid alone at 105 μM in synergy with cefazolin): 59.4%

N[C@@H](Cc1c[nH]c2ccccc12)C(=O)O [tryptophan]
survival rate ([1]; amino acid alone at 20 μM in synergy with cefazolin): 67.4%

N[C@@H](Cc1ccc(O)cc1)C(=O)O [tyrosine]
survival rate ([1]; amino acid alone at 5 μM in synergy with cefazolin): 80.5%

CC(C)[C@H](N)C(=O)O [valine]
survival rate ([1]; amino acid alone at 136 μM in synergy with cefazolin): 78.8%
